“And” between values parts separate entries of the source, which are not always exact repeats. Equal values may be shown once. Read-outs that look alike come from different tables or passages of the source. Each block holds one compound with its values, some of them ahead of it.
Legend:
[1] = molecular target: T1, human AhR (Homo sapiens, UniProt P35869); assay: AhR-responsive luciferase reporter gene induction in recombinant human hepatoma; details: for potency relative to TCDD, in words / increased potency compared to tryptanthrin (3): 6h; for AhR-dependent reporter gene activity (efficacy), in words: Figure 3
T1 sequence (P35869 11-848): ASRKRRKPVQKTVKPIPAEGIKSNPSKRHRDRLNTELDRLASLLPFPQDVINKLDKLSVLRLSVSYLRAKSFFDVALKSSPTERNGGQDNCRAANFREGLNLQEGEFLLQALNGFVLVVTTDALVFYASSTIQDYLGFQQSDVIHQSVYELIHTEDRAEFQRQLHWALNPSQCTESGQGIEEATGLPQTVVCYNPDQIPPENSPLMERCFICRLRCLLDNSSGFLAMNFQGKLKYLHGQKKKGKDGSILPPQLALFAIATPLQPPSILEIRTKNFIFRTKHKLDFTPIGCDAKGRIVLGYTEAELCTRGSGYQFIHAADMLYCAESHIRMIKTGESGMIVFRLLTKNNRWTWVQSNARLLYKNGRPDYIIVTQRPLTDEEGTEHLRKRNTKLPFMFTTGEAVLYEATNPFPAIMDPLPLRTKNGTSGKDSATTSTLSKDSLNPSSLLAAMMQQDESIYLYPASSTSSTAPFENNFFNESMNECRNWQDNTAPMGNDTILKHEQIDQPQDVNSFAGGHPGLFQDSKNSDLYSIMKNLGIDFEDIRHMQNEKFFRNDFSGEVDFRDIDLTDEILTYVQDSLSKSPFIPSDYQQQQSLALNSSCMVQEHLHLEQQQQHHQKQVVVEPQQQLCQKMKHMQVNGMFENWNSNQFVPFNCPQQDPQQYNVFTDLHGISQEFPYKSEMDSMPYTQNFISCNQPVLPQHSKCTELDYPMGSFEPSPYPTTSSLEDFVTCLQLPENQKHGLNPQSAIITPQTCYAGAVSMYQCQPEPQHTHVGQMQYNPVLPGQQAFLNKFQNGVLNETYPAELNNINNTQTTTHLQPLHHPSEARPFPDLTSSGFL

[2] = molecular target: T2, mouse AhR (Mus musculus, UniProt P30561); details: mouse H1L7.5c3 cells
[3] = molecular target: AhR (Homo sapiens, UniProt P35869); assay type: cell-based; details: HG2L7.5c1 cells, 6h, Figure 4
[4] = test system: AhR; details: ref [37]; cited from earlier work
[5] = molecular target: T2, mouse AhR; assay: cell-based
[6] = test system: AhR; details: mice or mouse cells; ref [34], [35], [76]; cited from earlier work

T2 sequence (P30561 10-805 limits assumed): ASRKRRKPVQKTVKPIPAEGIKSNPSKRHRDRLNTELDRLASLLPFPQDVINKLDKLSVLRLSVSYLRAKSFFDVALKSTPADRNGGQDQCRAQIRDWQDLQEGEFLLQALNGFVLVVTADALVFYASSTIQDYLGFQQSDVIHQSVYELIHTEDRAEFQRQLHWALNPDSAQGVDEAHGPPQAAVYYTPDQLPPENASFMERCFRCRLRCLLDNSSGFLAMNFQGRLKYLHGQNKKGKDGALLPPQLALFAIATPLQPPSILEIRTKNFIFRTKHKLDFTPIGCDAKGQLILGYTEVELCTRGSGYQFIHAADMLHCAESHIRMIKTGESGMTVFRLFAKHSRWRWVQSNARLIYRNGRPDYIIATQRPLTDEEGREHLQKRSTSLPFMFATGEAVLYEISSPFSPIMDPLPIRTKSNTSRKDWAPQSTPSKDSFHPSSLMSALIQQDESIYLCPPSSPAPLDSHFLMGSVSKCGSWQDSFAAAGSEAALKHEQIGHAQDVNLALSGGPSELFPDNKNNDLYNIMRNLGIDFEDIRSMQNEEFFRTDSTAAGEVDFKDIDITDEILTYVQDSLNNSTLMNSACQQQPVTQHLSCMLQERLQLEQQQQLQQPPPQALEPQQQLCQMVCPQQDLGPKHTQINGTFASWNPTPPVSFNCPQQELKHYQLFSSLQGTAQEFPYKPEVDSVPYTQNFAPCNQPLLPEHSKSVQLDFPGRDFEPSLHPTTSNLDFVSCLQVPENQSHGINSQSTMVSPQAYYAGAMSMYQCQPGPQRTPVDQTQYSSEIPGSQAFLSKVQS
T2 sequence (P11499 whole entry partner): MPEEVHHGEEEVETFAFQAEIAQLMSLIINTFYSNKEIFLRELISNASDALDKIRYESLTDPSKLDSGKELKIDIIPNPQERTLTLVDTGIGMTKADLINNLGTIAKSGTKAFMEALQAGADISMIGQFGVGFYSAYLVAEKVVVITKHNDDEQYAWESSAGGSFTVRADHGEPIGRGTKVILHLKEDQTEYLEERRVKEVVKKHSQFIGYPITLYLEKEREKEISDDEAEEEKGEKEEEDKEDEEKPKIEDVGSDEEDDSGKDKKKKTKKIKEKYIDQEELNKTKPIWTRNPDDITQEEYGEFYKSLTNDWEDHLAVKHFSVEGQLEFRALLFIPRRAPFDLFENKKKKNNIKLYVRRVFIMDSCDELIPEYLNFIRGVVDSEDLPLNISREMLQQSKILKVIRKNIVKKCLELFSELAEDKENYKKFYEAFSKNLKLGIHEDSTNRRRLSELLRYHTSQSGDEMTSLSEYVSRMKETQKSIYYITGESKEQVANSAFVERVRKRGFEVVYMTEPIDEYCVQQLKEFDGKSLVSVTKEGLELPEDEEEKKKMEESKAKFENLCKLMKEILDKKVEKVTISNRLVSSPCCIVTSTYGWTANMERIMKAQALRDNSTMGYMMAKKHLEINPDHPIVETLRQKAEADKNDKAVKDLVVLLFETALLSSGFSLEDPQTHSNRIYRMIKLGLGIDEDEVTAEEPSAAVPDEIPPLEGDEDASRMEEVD
T2 sequence (O08915 whole entry partner): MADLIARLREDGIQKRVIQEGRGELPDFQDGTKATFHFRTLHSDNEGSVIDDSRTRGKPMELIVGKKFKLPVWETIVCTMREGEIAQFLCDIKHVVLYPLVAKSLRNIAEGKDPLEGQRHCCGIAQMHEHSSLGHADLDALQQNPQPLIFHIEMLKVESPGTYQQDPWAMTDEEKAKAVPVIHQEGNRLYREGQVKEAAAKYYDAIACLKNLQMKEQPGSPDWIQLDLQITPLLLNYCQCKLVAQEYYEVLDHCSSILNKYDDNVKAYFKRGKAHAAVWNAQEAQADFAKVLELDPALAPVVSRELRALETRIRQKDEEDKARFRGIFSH

Structure (SMILES): O=C1Nc2ccc(Cl)cc2C1=C1Nc2ccc(Cl)cc2C1=O [2b, 5,5’-dichloroindirubin]
potency relative to TCDD, in words ([1]; human HG2L7.5c1 cells): comparable to or greater than TCDD

Structure (SMILES): O=C1Nc2cc(Br)ccc2/C1=C1/Nc2cc(Br)ccc2C1=O [2f, 6,6’-dibromoindirubin]
potency relative to TCDD, in words ([1]; human HG2L7.5c1 cells): comparable to or greater than TCDD

Structure (SMILES): O=C1c2ccc(Br)cc2-n2c1nc1cc(Br)ccc1c2=O [3f, 3,9-dibromotryptanthrin]
increased potency compared to tryptanthrin (3) ([1]; human HG2L7.5c1 cells): 350 fold
potency relative to TCDD, in words ([1]; human HG2L7.5c1 cells): comparable to the potency of TCDD
potency relative to TCDD, in words ([1]; human HG2L7.5c1 cells, listed as 3,9-dibromotryptanthrin): equipotent
EC50 ([1]; human HG2L7.5c1 cells, evaluated at 6h): 0.5 nM
AhR-dependent reporter gene activity (efficacy), in words ([1]; human cells): induced maximal AhR-dependent reporter gene activity
times less potent than TCDD [2]: 4,000 fold and ~ 4,000 fold

AhR-dependent reporter gene activity (efficacy), in words ([1]; human cells): completely inactive
Structure (SMILES): O=C(O)Cc1ccc2c(c1)-n1c(nc3cc(CC(=O)O)ccc3c1=O)C2=O [3g, 3,9-dicarboxymethylotryptanthrin]

Structure (SMILES): O=C1c2ccccc2-n2c1nc1cc(Br)ccc1c2=O [3h, 3-bromotryptanthrin]
times more potent than TCDD ([1]; human HG2L7.5c1 cells): 10 fold
increased potency compared to tryptanthrin (3) ([1]; human HG2L7.5c1 cells): 3,000 fold
AhR-dependent reporter gene activity (efficacy), in words ([1]; human cells): comparable to that produced by a maximally inducing concentration of TCDD
times less potent than TCDD [2]: 10,000 fold
times less potent than TCDD ([2]; listed as 3-bromotryptanthrin): > 10,000 fold

Structure (SMILES): Cc1ccccc1N=Nc1ccc(NC(=O)c2ccnn2C)c(C)c1 [CH223191]
inhibition of TCDD-dependent induction of luciferase reporter gene expression [3]: inhibit
effect of antagonist on AhR activation by indirubin [4]: little effect
effect of antagonist on ability of TCDD to bind to and activate the AhR [4]: effectively inhibit

Structure (SMILES): CC(C)n1cnc2c(NCCc3ccc(O)cc3)nc(-c3csc4ccccc34)nc21 [StemRegenin1]
inhibition of TCDD-dependent induction of luciferase reporter gene expression [3]: inhibit

Structure (SMILES): Clc1cc2c(cc1Cl)Oc1cc(Cl)c(Cl)cc1O2 [TCDD, 2,3,7,8-tetrachlorodibenzo-p-dioxin, reference compound]
EC50 ([1]; EC50 for gene induction at 24h of incubation, human cells, 24h incubation): 0.3 nM
EC50 [5]: 0.1 nM

Structure (SMILES): O=C1Nc2ccccc2/C1=C1/Nc2ccccc2C1=O [compound 2, Indirubin]
less potent than TCDD [6]: ~ 100

Structure (SMILES): O=C1c2ccccc2-n2c1nc1ccccc1c2=O [compound 3, Tryptanthrin]
EC50 [1]: 170 nM
EC50 [5]: 810 nM
